PubChem BioAssay AID1918999 (Molecular Pharmacology Branch, DTP, NCI, 2023)
Where “and” joins values, the source holds several entries; their conditions need not be identical. Equal values may be shown once.

System: 556581-035-R-J1-PDC complex spheroid growth
Experiment: Anticancer human tumor 556581-035-R-J1-PDC patient-derived ovarian carcinoma cell line growth inhibition [AhR]
Conditions: for viability, T/C: stronger effect = lower value
Excerpt: Multicellular complex tumor spheroid response to aryl hydrocarbon receptor antagonists in combination with a variety of drugs and investigational agents in selected tumor cell lines
The current study was undertaken to assess response to aryl hydrocarbon receptor antagonists in combination with standard-of-care drugs and investigational agents in solid tumor complex spheroid models. Complex spheroids include a stromal component modeled by human endothelial cells (HUVEC) and fibroblasts modeled by human mesenchymal stem cells (MSCs). The concentration ranges selected for each drug and investigational agent were based upon clinically achievable concentrations if the clinical Cmax of the agent was known.
Compounds. The drugs and investigational agents: BAY 2416964 (NSC825713), GNF351 (NSC835774), CH-223191 (NSC835775), CPI-455 (NSC825282), aza-TdCyd (NSC777586), decitabine (NSC127716), belinostat (NSC758774), entinostat (NSC756642), pevonedistat (NSC761192), tazemetostat (NSC777109), talazoparib (NSC765396), olaparib (NSC753686), selinexor (NSC780203), nedisertib (M3814, NSC802822), bortezomib (NSC756655), venetoclax (NSC766270), doxorubicin (NSC123127), elimusertib (BAY189344, NSC800525), ceralasertib (AZD6738, NSC777638), TAK-243 (NSC785004), alisertib (NSC759677), etoposide (NSC141540), topotecan (NSC609699), eribulin (NSC707389), gemcitabine (NSC613327), carboplatin (NSC241240), cisplatin (NSC119875), and SN-38 (NSC673596) were obtained from the National Cancer Institute (NCI) Developmental Therapeutics Program Chemical Repository (32). The FDA-approved anticancer drug set is available from the Developmental Therapeutics Program at https://dtp.cancer.gov/organization/dscb/obtaining/available plates.htm. […] The stock solutions were prepared in dimethyl sulfoxide (DMSO, Sigma-Aldrich, St. Louis, MO, cat. D2650), except for the platinum compounds which were prepared in saline (Quality Biological, Gaithersburg, MD, cat. 114-055-101), at 800-fold the tested concentration and stored at -70 degrees C prior to their use. All drugs and investigational agents were tested over a range starting from a high concentration at or near the clinical Cmax and decreasing in half-log increments. If the clinical Cmax for an agent had not been determined, the highest concentration tested was 10 microM (Table 1).
Cell Culture. All cells were maintained in an incubator at 37 degrees C and 5% CO2 with 95% humidity. The PDC lines were cultured according to standard operating procedures established by the NCI PDMR (https://pdmr.cancer.gov). Briefly, all PDCs were thawed and cultured in Matrigel-coated flasks prepared with a working solution of 1X Ham's F-12 nutrient mix, without supplementation (Invitrogen, Waltham, MA, cat. 11765054), 100 U/mL penicillin-streptomycin (Invitrogen, cat. 15140122), and 2.5% Matrigel (Corning Inc., Corning, NY, cat. 354248) for the first three passages. All PDCs were cultured in complete DMEM/F-12 media containing advanced DMEM/F-12 (Invitrogen, cat. 12634028), 4.9% defined fetal bovine serum, heat inactivated (HyClone Laboratories Inc., Logan, UT, cat. SH30070.03HI), 389 ng/mL hydrocortisone (Sigma-Aldrich, cat. H4001), 9.7 ng/mL human EGF recombinant protein (Invitrogen, cat. PHG0313), 23.4 microg/mL adenine (Sigma-Aldrich, cat. A2786), 97.3 U/mL penicillin-streptomycin (Invitrogen, cat. 15140122), 1.9 mM L-glutamine (Invitrogen, cat. 25030081), and 9.7 microM Y-27632 dihydrochloride (Tocris Bioscience, Bristol, United Kingdom, cat. 1254). The PDCs were cultured in complete DMEM/F12 media without 10 microM Y-27632 dihydrochloride for at least two passages prior to the screen. The established cell lines NCI-H1341 and […] were cultured in DMEM/F-12, HEPES (Invitrogen, cat. 11330032), 5% defined fetal bovine serum (HyClone Laboratories Inc., cat. SH30070.03), ITS premix universal culture supplement [insulin (5 microg/mL), transferrin (5 microg/mL), and selenious acid (5 ng/mL)] […]

[1] = curve of first compound, second compound 0.1 µM
[2] = curve of first compound, second compound 0.316 µM
[3] = curve of first compound, second compound 1 µM
[4] = curve of first compound, second compound 3.16 µM
[5] = curve of first compound, second compound 10 µM
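Throughout, for viability, T/C: compound exposure lasted 7 days; 100% = DMSO vehicle control growth.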

CC1COCCN1c1cc(C2(S(C)(=N)=O)CC2)nc(-c2ccnc3[nH]ccc23)n1 (configuration not stated)
viability, T/C (compound 0.0316 µM): 104% and 101% and 99.6% | viability, T/C (compound 0.1 µM): 103% and 105% and 107% | viability, T/C (compound 0.316 µM): 96.5% and 102% and 92.8% | viability, T/C (compound 1 µM): 86.3% and 92.2% and 88.4% | viability, T/C (compound 3.16 µM): 84.8% (2×) and 74.1% | viability, T/C (compound 10 µM): 59.5% and 60.3% and 57.7% | IC50 (curve of compound): > 10 µM

COc1cc(Nc2ncc3c(n2)-c2ccc(Cl)cc2C(c2c(F)cccc2OC)=NC3)ccc1C(=O)O + CC(CO)NC(=O)c1cc(-c2ccc(Cl)cc2)nn(-c2cnn(C)c2)c1=O
IC50 [1]: > 10 µM | IC50 [2]: > 10 µM | IC50 [3]: > 10 µM | IC50 [4]: > 10 µM | IC50 [5]: > 10 µM | viability, T/C (second compound 0.1 µM, first compound 0.0316 µM): 86% | viability, T/C (second compound 0.1 µM, first compound 0.1 µM): 70.6% | viability, T/C (second compound 0.1 µM, first compound 0.316 µM): 66% | viability, T/C (second compound 0.1 µM, first compound 1 µM): 66.5% | viability, T/C (second compound 0.1 µM, first compound 3.16 µM): 61.3% | viability, T/C (second compound 0.1 µM, first compound 10 µM): 52.6% | viability, T/C (second compound 0.316 µM, first compound 0.0316 µM): 88.8% | viability, T/C (second compound 0.316 µM, first compound 0.1 µM): 73.4% | viability, T/C (second compound 0.316 µM, first compound 0.316 µM): 59% | viability, T/C (second compound 0.316 µM, first compound 1 µM): 62.2% | viability, T/C (second compound 0.316 µM, first compound 3.16 µM): 55.2% | viability, T/C (second compound 0.316 µM, first compound 10 µM): 49.4% | viability, T/C (second compound 1 µM, first compound 0.0316 µM): 95.7% | viability, T/C (second compound 1 µM, first compound 0.1 µM): 69.3% | viability, T/C (second compound 1 µM, first compound 0.316 µM): 73.4% | viability, T/C (second compound 1 µM, first compound 1 µM): 64.9% | viability, T/C (second compound 1 µM, first compound 3.16 µM): 55.8% | viability, T/C (second compound 1 µM, first compound 10 µM): 49.5% | viability, T/C (second compound 3.16 µM, first compound 0.0316 µM): 79.9% | viability, T/C (second compound 3.16 µM, first compound 0.1 µM): 71.2% | viability, T/C (second compound 3.16 µM, first compound 0.316 µM): 70.2% | viability, T/C (second compound 3.16 µM, first compound 1 µM): 65.7% | viability, T/C (second compound 3.16 µM, first compound 3.16 µM): 54% | viability, T/C (second compound 3.16 µM, first compound 10 µM): 60.9% | viability, T/C (second compound 10 µM, first compound 0.0316 µM): 88.5% | viability, T/C (second compound 10 µM, first compound 0.1 µM): 80.8% | viability, T/C (second compound 10 µM, first compound 0.316 µM): 66% | viability, T/C (second compound 10 µM, first compound 1 µM): 71.3% | viability, T/C (second compound 10 µM, first compound 3.16 µM): 56.7% | viability, T/C (second compound 10 µM, first compound 10 µM): 55.1%

Nc1ncn(C2CC(O)C(CO)S2)c(=O)n1 (configuration not stated) + Cc1ccccc1N=Nc1ccc(NC(=O)c2ccnn2C)c(C)c1
IC50 [1]: > 0.3 µM | IC50 [2]: > 0.3 µM | IC50 [3]: > 0.3 µM | IC50 [4]: > 0.3 µM | IC50 [5]: > 0.3 µM | viability, T/C (second compound 0.1 µM, first compound 0.000949 µM): 105% | viability, T/C (second compound 0.1 µM, first compound 0.003 µM): 106% | viability, T/C (second compound 0.1 µM, first compound 0.00949 µM): 115% | viability, T/C (second compound 0.1 µM, first compound 0.03 µM): 97% | viability, T/C (second compound 0.1 µM, first compound 0.0949 µM): 77.8% | viability, T/C (second compound 0.1 µM, first compound 0.3 µM): 69.5% | viability, T/C (second compound 0.316 µM, first compound 0.000949 µM): 93.6% | viability, T/C (second compound 0.316 µM, first compound 0.003 µM): 111% | viability, T/C (second compound 0.316 µM, first compound 0.00949 µM): 100% | viability, T/C (second compound 0.316 µM, first compound 0.03 µM): 95.9% | viability, T/C (second compound 0.316 µM, first compound 0.0949 µM): 78.8% | viability, T/C (second compound 0.316 µM, first compound 0.3 µM): 63.4% | viability, T/C (second compound 1 µM, first compound 0.000949 µM): 99.5% | viability, T/C (second compound 1 µM, first compound 0.003 µM): 106% | viability, T/C (second compound 1 µM, first compound 0.00949 µM): 99.9% | viability, T/C (second compound 1 µM, first compound 0.03 µM): 91.5% | viability, T/C (second compound 1 µM, first compound 0.0949 µM): 102% | viability, T/C (second compound 1 µM, first compound 0.3 µM): 64.5% | viability, T/C (second compound 3.16 µM, first compound 0.000949 µM): 87.1% | viability, T/C (second compound 3.16 µM, first compound 0.003 µM): 101% | viability, T/C (second compound 3.16 µM, first compound 0.00949 µM): 88.1% | viability, T/C (second compound 3.16 µM, first compound 0.03 µM): 90.6% | viability, T/C (second compound 3.16 µM, first compound 0.0949 µM): 76.8% | viability, T/C (second compound 3.16 µM, first compound 0.3 µM): 65.7% | viability, T/C (second compound 10 µM, first compound 0.000949 µM): 90% | viability, T/C (second compound 10 µM, first compound 0.003 µM): 95.2% | viability, T/C (second compound 10 µM, first compound 0.00949 µM): 84.1% | viability, T/C (second compound 10 µM, first compound 0.03 µM): 80.1% | viability, T/C (second compound 10 µM, first compound 0.0949 µM): 83.1% | viability, T/C (second compound 10 µM, first compound 0.3 µM): 68%
